Results on 37 compounds are retold here after ChEMBL document CHEMBL3507680, “University of Dundee, Gates Library screen for HepG2 cell viability”.

The data set in a line: Human HepG2 cell viability assay in 384 well format. As to conditions: HepG2 cells, read-out: Inhibition. In kind it is toxicity, cell-based. Details: dose 125 nL, time 70.5 hour; concentration not given beside the values.

Each structure is given as a SMILES string.

Take `CC(C)(C)Nc1c(C2CCN(C(=O)C(C)(C)C)CC2)nc2ccccn12`: the cytotoxicity at 70.5 h was -4.87%.
Take `CCCC1c2cccn2CCN1C(=O)Cn1cnc2sc(C)cc2c1=O` (configuration not stated): the cytotoxicity at 70.5 h was -12.3%.
On to `Cc1nc(O)cc([C@@H]2CN(S(=O)(=O)N(C)C)C[C@H]2c2ccccc2F)n1`, for which the cytotoxicity at 70.5 h is -8.96%.
For `Cc1nc(O)cc([C@@H]2CN(C(=O)C3CC3)C[C@H]2c2ccccc2F)n1`, the cytotoxicity at 70.5 h was -2.23%.
With `CCS(=O)(=O)N1C[C@@H](c2cc(O)nc(C)n2)[C@H](c2ccccc2F)C1`, the cytotoxicity at 70.5 h was 13.7%.
The value for `CCC1CCCCN1C(=O)Cn1nc(-c2ccc(C)s2)cc(N)c1=O` (configuration not stated) was -2.23%.
`O=C(NCCc1cc2nc(-c3ccncc3)ccn2n1)C1CCOCC1`: the cytotoxicity at 70.5 h is -5.82%.
For the compound `Cc1cc(-c2cc(N)c(=O)n(CC(=O)NC3CCCC3)n2)c(C)o1`, the cytotoxicity at 70.5 h was -1.96%.
The value for `Cc1cc(-c2cc(N)c(=O)n(CC(=O)N3CCCC(C)C3)n2)c(C)o1` (configuration not stated) was -9.35%.
The value for `CN1C[C@@H](C(=O)NC2CCCC2)[C@@]2(COc3ccc(F)cc3C2=O)C1` was -6.62%; that for `CN1CCN(C(=O)[C@@H]2CN(C)C[C@]23COc2ccc(F)cc2C3=O)CC1` was 28.4%; that for `Cn1nccc1C(=O)NCCN1CCC(O)(c2ccc(F)cc2)CC1` was 7.28%.
The value for `O=C(Cn1cc(Cl)cn1)NCCN1CCC(O)(c2ccc(F)cc2)CC1` was 5.27%.
As to `CN(c1cccnn1)[C@@H]1CC[C@@H]2CN(Cc3ccccc3C(=O)O)C[C@@H]21`, the cytotoxicity at 70.5 h was -6.92%.
For `CC1(C)O[C@@](C)([C@H]2CC3(CCN(c4cnccn4)CC3)CO2)CC[C@@H]1O`, the cytotoxicity at 70.5 h was 1.78%.
The value for `CN(C)Cc1cnc(C2CCN(C(=O)c3ccc(F)cc3)C2)[nH]1` (configuration not stated) was -6.91%.
In the case of `CCCC1c2cccn2CCN1S(=O)(=O)N1CCOCC1` (configuration not stated), the cytotoxicity at 70.5 h was -4.73%.
With `CC(=O)N1CCOC(CCc2cc(-c3c(C)noc3C)ncn2)C1` (configuration not stated) the figure was -0.21%; with `COc1cc(CCC(=O)N2CCC(c3cnccn3)CC2)on1`, -1.25%; with `CCOCC(=O)N1C[C@@H](O)[C@H](N2CCN(c3ccccc3)CC2)C1`, -3.95%.
With `Nc1nccc(C2CN(Cc3ccc(-c4ccccc4C(=O)O)o3)C2)n1` the figure was 2.9%; with `CN(c1cccnn1)[C@@H]1CC[C@@H]2CN(Cc3cccc(C(=O)O)c3)C[C@@H]21`, -6.81%; with `CC1(C(N)=O)CN(CC2CCC2)CCO1` (configuration not stated), -2.2%.
`Cc1nn(C)c(C)c1-c1ccc(=O)n(C(C)C(=O)NC(C)(C)C)n1` (configuration not stated): the cytotoxicity at 70.5 h was 3.31%.
As to `Cn1ccnc1C(O)c1ccccc1N1CCN(Cc2cccs2)CC1` (configuration not stated), the cytotoxicity at 70.5 h is -0.023%.
With `CCc1cc(O)n2nc(C3CCN(C(=O)c4ccccn4)CC3)cc2n1` the figure was -0.453%.
On to `CC(C)(C)Nc1c(C2CCCN(C(=O)C3CC3)C2)nc2ccccn12` (configuration not stated), for which the cytotoxicity at 70.5 h turned out to be 17%.
Consider `Cc1ccc(C2(CN3CCN(Cc4cn(C)nc4C)CC3)CC2)cc1`, for which the cytotoxicity at 70.5 h is -11.3%.
Take `Cn1cc(CN2CCN(CC3(c4ccccc4)CC3)CC2)cn1`: the cytotoxicity at 70.5 h was -11.2%.
With `CN1CCCC1c1cc2cccnc2n1Cc1ccc(F)cc1` (configuration not stated) the figure was -5.23%.
The value for `O[C@@H]1CN(Cc2cccc(F)c2)CC[C@H]1NCc1ccccn1` was 12.7%; that for `CCc1nc(-c2cncnc2C2CCCNC2)no1` (configuration not stated) was -1.26%.
The value for `Cc1ccc(CN(CCCN(C)C)Cc2cnc(N(C)C)nc2)o1` was 6.47%; that for `Cc1ccc(CN(CCCN2CCOCC2)Cc2cnn(C)c2)o1` was 0.657%.
As for `Cc1noc(C)c1-c1cccc(C2CN(CC(=O)N(C)C)CCO2)n1` (configuration not stated), the cytotoxicity at 70.5 h was -4.85%.
On to `Cc1cccc(Nc2cc(C3CCCN(CC(N)=O)C3)ccn2)n1` (configuration not stated), for which the cytotoxicity at 70.5 h was determined as 22.5%.
With `COc1ccc(OCCc2cc(C3CCN(CC(C)C)C3)n[nH]2)cc1` (configuration not stated) the figure was -2.33%.
